Where “and” joins values, the source holds several entries; their conditions need not be identical. Equal entries are not always repeated.
Target: T1, Leukotriene B4 receptor 2 (Homo sapiens, UniProt Q9NPC1)
T1 sequence (Q9NPC1 whole entry): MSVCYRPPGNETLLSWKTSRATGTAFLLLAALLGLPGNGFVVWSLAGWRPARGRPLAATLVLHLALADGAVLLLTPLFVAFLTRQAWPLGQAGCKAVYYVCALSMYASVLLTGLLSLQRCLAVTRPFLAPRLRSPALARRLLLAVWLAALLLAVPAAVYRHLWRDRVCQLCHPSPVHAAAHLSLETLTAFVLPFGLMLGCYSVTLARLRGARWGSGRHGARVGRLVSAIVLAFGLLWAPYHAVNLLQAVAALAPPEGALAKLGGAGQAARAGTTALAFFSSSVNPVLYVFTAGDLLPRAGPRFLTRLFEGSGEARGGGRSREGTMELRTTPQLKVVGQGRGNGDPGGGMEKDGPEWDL

SMILES | Ki
COc1ccc(/C=C/CCCCOc2ccc(Oc3cccc(C(=O)O)c3)cc2CCC(=O)O)cc1 [CGS 23130] | 24 nM and 8 nM
CCCCCCCCC(O)/C=C/c1cccc(C)n1 (centres undefined) [CGS 23114] | 885 nM
CCc1cc(C(C)=O)c(O)cc1OCCCCC(C)(C)c1nnn[nH]1 [CGS 23167] | 293 nM and 364 nM
COc1ccc(/C=C/CCCCOc2ccc(C(=O)c3cccc(C(=O)O)c3)cc2CCC(=O)O)cc1 [(Z)-3-{3-(2-Carboxy-ethyl)-4-[6-(4-methoxy-phenyl)-hex-5-enyloxy]-benzoyl}-benzoic acid] | 35 nM and 15 nM

Source: BindingDB's records for PubMed 1320692 (Ciba-Geigy, 1992)
